Our source for the EC50 values is US20250154173A1 (Merck Sharp & Dohme LLC, priority 2023, published 2025).

The target in the assay is T1, GST-RIPK1 (recombinant GST-RIPK1 kinase domain (residues 1-327)) (Homo sapiens, UniProt Q13546).
T1 construct: recombinant GST-RIPK1 kinase domain (residues 1-327) enzyme produced from baculovirus-transfected Sf21 cells; host or cells: baculovirus-transfected Sf21 insect cells
T1 sequence (Q13546 1-327): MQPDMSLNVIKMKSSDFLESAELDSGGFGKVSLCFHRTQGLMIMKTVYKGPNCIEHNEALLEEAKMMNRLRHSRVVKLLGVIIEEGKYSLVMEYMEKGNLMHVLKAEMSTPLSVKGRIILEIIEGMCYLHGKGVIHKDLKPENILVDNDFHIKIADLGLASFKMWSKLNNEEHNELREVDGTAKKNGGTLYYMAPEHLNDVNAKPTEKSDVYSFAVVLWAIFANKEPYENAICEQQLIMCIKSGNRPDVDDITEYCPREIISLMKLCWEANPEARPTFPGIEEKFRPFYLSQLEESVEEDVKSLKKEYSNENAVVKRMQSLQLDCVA
Nature of the assay: RIPK1-ADP-Glo Enzymatic Assay. The format is biochemical. To be noted: ten-point titration, top compound concentration of 100000 nM; 25 nM GST-RIPK1, 300 μM ATP, 3 μM dephosphorylated-MBP; 30 min pre-incubation, 150 min reaction. On the procedure:
RIPK1-ADP-Glo Enzymatic Assay
The enzymatic activity of RIPK1 is measured using an assay derived from ADP-Glo kit (TMPromega), which provides a luminescent-based ADP detection system. Specifically, the ADP generated by RIPK1 kinase is proportionally detected as luminescent signals in a homogenous fashion. In this context, the assessment of the inhibitory effect of small molecules (EC50) is measured by the effectiveness of the compounds to inhibit the ATP to ADP conversion by RIPK1.
In this assay, the potency (EC50) of each compound was determined from a ten-point (1:3 serial dilution; top compound concentration of 100000 nM) titration curve using the following outlined procedure. To each well of a white ProxiPlus 384 well-plate, 30 nL of compound (1% DMSO in final assay volume of 3 μL) was dispensed, followed by the addition of 2 μL of 1× assay buffer (25 mM Hepes 7.3, 20 mM MgCl2, 50 mM NaCl, 1 mM DTT, 0.005% Tween20, and 0.02% BSA) containing 37.5 nM of GST-RIPK1 (recombinant GST-RIPK1 kinase domain (residues 1-327) enzyme produced from baculovirus-transfected Sf21 cells: MW=62 kDa). Plates were placed in an ambient temperature humidified chamber for a 30 minutes pre-incubation with compound. Subsequently, each reaction was initiated by the addition of 1 μL 1× assay buffer containing 900 μM ATP and 3 μM dephosphorylated-MBP substrate. The final reaction in each well of 3 μL consists of 25 nM of GST-RIPK1, 300 μM ATP, and 3 μM dephosphorylated-MBP. Kinase reactions were allowed to proceed for 150 minutes prior to adding ADP-Glo reagents per Promega's outlined kit protocol. Dose-response curves were generated by plotting percent effect (% product conversion; Y-axis) vs. Log 10 compound concentrations (X-axis). EC50 values were calculated using a non-linear regression, four-parameters sigmoidal dose-response model.
(In general: In ADP-Glo the light output rises with the ADP produced.)

On to “4-{[(1r,3R,5′S,7a′R)-3′-oxo-5′- phenyltetrahydro-3′H- spiro[cyclobutane-1,2′-pyrrolo[2,1- b][1,3]oxazol]-3-yl]oxy}pyrimidine- 2-carbonitrile [Example 9.18]”, for which the concentration giving a half-maximal response (EC50) is 0.054 µM.
The same measure for “5-{[(1r,3R,5′S,7a′R)-3′-oxo-5′- phenyltetrahydro-3′H- spiro[cyclobutane-1,2′-pyrrolo[2,1- b][1,3]oxazol]-3-yl]oxy}pyridine-3- carbonitrile [Example 9.15]”: 0.073 µM.
With `O=C1N2[C@@H](CC[C@H]2c2ccccc2)OC12CCC(Oc1cnccn1)CC2` (mixture of isomers) [Example 9.52, (5′S,7a′R)-5′-phenyl-4-[(pyrazin-2-yl)oxy]tetrahydro-3′H-spiro[cyclohexane-1,2′-pyrrolo[2,1-b][1,3]oxazol]-3′-one] the figure was 0.019 µM; with `O=C1N2[C@@H](CC[C@H]2c2ccccc2)OC12CCC(OCc1ccccc1)CC2` (single isomer, unassigned) [Example 1.1, ((1r or s),4R,5′S,7a′R)-4-(benzyloxy)-5′-phenyltetrahydro-3′H-spiro[cyclohexane-1,2′-pyrrolo[2,1-b]oxazol]-3′-one], 0.256 µM.
With `O=C1N2[C@@H](CC[C@H]2c2ccccc2)OC12CCC(OCc1ccccc1)CC2` (single isomer, unassigned) [Example 1.2, ((1s or r),4R,5′S,7a′R)-4-(benzyloxy)-5′-phenyltetrahydro-3′H-spiro[cyclohexane-1,2′-pyrrolo[2,1-b]oxazol]-3′-one], the EC50 turned out to be 0.138 µM.
Turning to `O=C1N2[C@@H](CC[C@H]2c2cncc(F)c2)OC12CCC(OCc1ccccc1)CC2` (single isomer, unassigned) [Example 2.1, ((1r or s),4R,5′S,7a′R)-4-(benzyloxy)-5′-(5-fluoropyridin-3-yl)tetrahydro-3′H-spiro[cyclohexane-1,2′-pyrrolo[2,1-b]oxazol]-3′-one], the EC50 worked out at 1.13 µM.
With `O=C1N2[C@@H](CC[C@H]2c2cncc(F)c2)OC12CCC(OCc1ccccc1)CC2` (single isomer, unassigned) [Example 2.2, ((1s or r),4R,5′S,7a′R)-4-(benzyloxy)-5′-(5-fluoropyridin-3-yl)tetrahydro-3′H-spiro[cyclohexane-1,2′-pyrrolo[2,1-b]oxazol]-3′-one] the figure was 0.595 µM; with `Cn1cc(C2CCC3OC4(CC(Oc5cc(C#N)ncn5)C4)C(=O)N32)cn1` (single isomer, unassigned) [Example 6.1, 6-((((1r or s),3R,5′(S or R),7a′R)-5′-(1-methyl-1H-pyrazol-4-yl)-3′-oxotetrahydro-3′H-spiro[cyclobutane-1,2′-pyrrolo[2,1-b]oxazol]-3-yl)oxy)pyrimidine-4-carbonitrile], 93.4 µM.
The same measure for `Cn1cc(C2CCC3OC4(CC(Oc5cc(C#N)ncn5)C4)C(=O)N32)cn1` (single isomer, unassigned) [Example 6.2, 6-((((1s or r),3R,5′(S or R),7a′R)-5′-(1-methyl-1H-pyrazol-4-yl)-3′-oxotetrahydro-3′H-spiro[cyclobutane-1,2′-pyrrolo[2,1-b]oxazol]-3-yl)oxy)pyrimidine-4-carbonitrile]: 99 µM; for `Cn1cc(C2CC[C@H]3OC4(CC(Oc5cc(C#N)ncn5)C4)C(=O)N23)cn1` (single isomer, unassigned) [Example 6.3, 6-((((1r or s),3R,5′(R or S),7a′R)-5′-(1-methyl-1H-pyrazol-4-yl)-3′-oxotetrahydro-3′H-spiro[cyclobutane-1,2′-pyrrolo[2,1-b]oxazol]-3-yl)oxy)pyrimidine-4-carbonitrile]: 0.129 µM.
With `Cn1cc(C2CCC3OC4(CC(Oc5cc(C#N)ncn5)C4)C(=O)N32)cn1` (single isomer, unassigned) [Example 6.4, 6-((((1s or r),3R,5′(R or S),7a′R)-5′-(1-methyl-1H-pyrazol-4-yl)-3′-oxotetrahydro-3′H-spiro[cyclobutane-1,2′-pyrrolo[2,1-b]oxazol]-3-yl)oxy)pyrimidine-4-carbonitrile] the figure was 2.83 µM.

Broadly, the EC50 is the concentration needed to bring the measured effect to its halfway point.
